Measured values taken from US11225469B2, “Inhibitors of phosphoglycerate dehydrogenase (PHGDH) and uses thereof” (Whitehead Institute for Biomedical Research, priority 2015, dated 2022).

Experiments:
[1] = tested on: PHGDH-dependent cell lines (MDA-MB-468, BT-20, HCC70, HT1080, and MT-3); assay: Cytotoxicity (Cell Titer-Glo), PHGDH-dependent cell lines; format: cell-based; details: Homo sapiens
Experimental: Knockdown of PHGDH is selectively toxic towards PHGDH-dependent cell lines, and minimally toxic towards PHGDH-independent cell lines. […] Cell count was determined by quantitating the amount of ATP present with CellTitreGlo® measurements 96 hours after dosage.
Cells were seeded in white 96-well plates (Greiner) at a density of 2000 cells/well (MDA-MB-468, BT-20, MT-3) or 1000 cells/well (all other cell lines) and allowed to attach for 24 hours. Compounds were prepared in DMSO and dispensed using an HP D300 compound dispenser. Cell viability was assessed with Cell Titer-Glo (Promega) at four days following treatment and luminescence measured with a SpectraMax M5 Plate Reader (Molecular Devices). Luminescence was normalized to an untreated control in identical medium. For rescue experiments, RPMI was supplemented with 40 μM adenosine, uridine, guanosine, cytidine, deoxyadenosine, thymidine, deoxyguanosine, and deoxycytidine and the medium was replaced daily.

MDA-MB-468 cells = assay: Metabolite profiling and 13C labeling in MDA-MB-468 cells (LC-MS); format: cell-based, human
Experimental: To track the effects of PHGDH inhibition on glycolysis and serine biosynthesis, MDA-MB-231 and MDA-MB-468 cells were fed universally labeled carbon-13 glucose and the intracellular ratio of labeled to unlabeled glucose was measured at the times indicated in FIG. 3E.
(§1) Cells were evenly seeded at 400,000 cells per well of a 6-well plate and allowed to attach for 24 hours. Prior to all labeling experiments, cells were pretreated with 10 μM compound or an equivalent volume of DMSO in RPMI for 1 hour. For steady-state metabolite concentrations, cells were washed with PBS prior to pretreatment and treatment in RPMI lacking serine and glycine. For labeling experiments, U-^13C-glucose, U-^13C-serine, or U-^13C-glycine replaced the corresponding unlabeled RPMI component. Cells were washed in 4° C. 0.9% (w/v) NaCl in LCMS-grade water and extracted in 1 mL/well of 80:20 (v/v) methanol:water with 0.01 ng/mL Val-d8 and Phe-d8 as internal extraction standards. The extraction solvent was dried under nitrogen gas and metabolite samples were stored at −80° C. until analysis. Triplicate identically seeded wells were trypsinzed and analyzed with a Multisizer Coulter Counter (Beckman Coulter) to obtain cell counts and total cell volumes for normalization.
Dried metabolites were resuspended in 100 μL water, centrifuged at 13,000×g at 4° C. for 10 minutes, and the supernatant recovered for analysis. Chromatographic separation was achieved by injecting 1 pi of sample on a SeQuant ZIC-pHILIC Polymeric column (2.1 3 150 mm […], EMD Millipore). Flow rate was set to 0.1 ml per minute, column compartment was set to 25° C., and autosampler sample tray was set to 4° C. Mobile Phase A consisted of 20 mM ammonium carbonate, 0.1% ammonium hydroxide. Mobile Phase B was 100% acetonitrile. The mobile phase gradient (% B) was as follows: 0 min 80%, 30 min 20%, 31 min 80%, 42 min 80%. All mobile phase was introduced into the ionization source set with the following parameters: sheath gas=40, auxiliary gas=15, sweep gas=5, spray voltage=−3.1 kV or +3.0 kV, capillary temperature=275° C., S-lens RF level=40, probe temperature=350° C. Metabolites were monitored using a polarity-switching full-scan method and identified by accurate mass (±20 ppm) and retention time within 15 seconds of a previously run pure standard. Metabolite peaks were identified and integrated with Xcalibur v.2.2 software (Thermo Fisher Scientific) and normalized to internal standard and to total cell volume, m/z ratios for stable isotopically labeled metabolites were obtained from IsoMETLIN (See, e.g., Cho, K. et al. “isoMETLIN: a database for isotope-based metabolomics.” Anal Chem 86, 9358-9361 (2014)) and corrected for natural abundance.

GPD1L = GPD1L (Homo sapiens (Human), UniProt Q8N335); assay: Counter-screen against GPD1L; format: biochemical; details: Table E11
GPD1L, sequence (Q8N335 whole entry): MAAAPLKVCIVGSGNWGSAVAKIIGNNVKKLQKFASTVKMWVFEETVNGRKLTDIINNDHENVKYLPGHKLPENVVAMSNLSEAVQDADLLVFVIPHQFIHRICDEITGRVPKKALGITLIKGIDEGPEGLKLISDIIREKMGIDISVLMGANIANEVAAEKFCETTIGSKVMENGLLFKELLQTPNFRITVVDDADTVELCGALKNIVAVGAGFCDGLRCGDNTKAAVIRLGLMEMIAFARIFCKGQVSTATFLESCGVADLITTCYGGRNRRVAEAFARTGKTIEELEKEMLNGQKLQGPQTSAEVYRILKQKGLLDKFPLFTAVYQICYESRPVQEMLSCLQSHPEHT
Experimental: GAPDH substrate buffer contained 210 mM Tris pH 7.4, 2.5 mM NaH2PO4 pH 7.4, 2 mM DL-Glyceraldehyde 3-phosphate, 1.75 mM MgCl2, 0.01 mM NAD+, 0.11 mM resazurin, 0.2 mg/mL BSA, and 0.01% Tween-20. GAPDH enzyme buffer contained 50 mM Tris pH 7.4, 100 mM NaCl, 0.02 mM TCEP, 0.01 mM EDTA, 0.1 mg/mL BSA, 0.42 mg/mL diaphorase, and 2.5 nM GAPDH. The GAPDH, GPD1, and GPD1L assays were run in 384-well plates using the same protocol and readout as the PHGDH assay. […] GPD1 enzyme buffer contained 50 mM Tris pH 7.4, 100 mM NaCl, 0.08 mM TCEP, 0.4 mg/mL BSA, 0.03 μM EDTA, and 0.8 nM GPD1. 70 μL of substrate buffer were mixed with 10 μL enzyme buffer. GPD1L substrate buffer contained 200 mM Tris pH 7.4, 0.05 mM sn-G3-P, 2 mM MgCl2, 0.04 mM NAD+, 0.11 mM resazurin, 0.1 mg/mL BSA, and 0.02% Tween-20. GPD1L enzyme buffer contained 50 mM Tris pH 7.4, 100 mM NaCl, 0.02 mM TCEP, 0.42 mg/mL diaphorase, 0.1 mg/mL BSA, 0.008 μM EDTA, and 16 nM GPD1L. 40 μL of substrate buffer were mixed with 40 μL of enzyme buffer.
The GAPDH and GPD1L assays were read using the same protocol as the PHGDH assay. The GPD1 assay was read using loss of NADH fluorescence (λex=340 nm and λem=460 nm).

[2] = tested on: MDA-MB-231 cells over-expressing PHGDH; assay: Intracellular serine in MDA-MB-231 cells expressing PHGDH, medium lacking serine and glycine (LC-MS); format: cell-based, human; details: media lacking serine and glycine
Experimental: To examine target engagement of PHGDH inhibitors in cells, MDA-MB-231 cells that lack detectable expression of PHGDH and MDA-MB-231 cells that stably express full-length human PHGDH (MDA-MB-231-PHGDH) were treated with PHGDH inhibitors in RPMI lacking serine and glycine. A MDA-MB-231 cell line was constructed which expresses PHGDH for comparison against the MDA-MB-231 empty vector line. MDA-MB-231 breast cancer cells were infected with PHGDH-expressing retrovirus.
MDA-MB-231 cells are incapable of synthesizing serine, but the addition of PHGDH permits these cells to synthesize serine. […] Concentrations of serine were determined by comparison with signals of internal standards and calibration curves. PHGDH inhibition reduces steady-state levels of intracellular serine in MDA-MB-231 cells over-expressing PHGDH. Studies were also performed in MDA-MB-468 cells, which over-express PHGDH and are PHGDH-dependent.
as §1, with “0.9% (w/v) NaCl in LCMS-grade water and extracted in 1 mL/well of 80:20 (v/v) methanol:water with 0.01 ng/mL Val-d8 and Phe-d8 as internal extraction standards. The extraction solvent was dried under nitrogen gas and metabolite samples were stored at −80° C. until analysis.” left out
Dried metabolites were resuspended in 100 μL water, centrifuged at 13,000×g at 4° C. for 10 minutes, and the supernatant recovered for analysis. […] Metabolites were monitored using a polarity-switching full-scan method and identified by accurate mass (±20 ppm) and retention time within 15 seconds of a previously run pure standard. […]

[3] = tested on: serine biosynthetic pathway; assay: Labeled serine in brain after tail vein injection of 13C glucose; format: in vivo, mouse; details: 35 mg/kg
Experimental: The mice were sacrificed at the indicated times, and the fraction of labeled serine in the brain was determined by LC-MS and normalized to the fraction of labeled lactate (FIG. 4J).

SMILES: Cc1cc(C)nc(NC(=S)N2CCN(Cc3ccc(C(F)(F)F)cc3)CC2)c1 [Compound 267, N-(4,6-dimethylpyridin-2-yl)-4-(4-(trifluoromethyl)benzyl)piperazine-1-carbothioamide]
- EC50 [1]: 8 to 16 µM
- intracellular glucose concentration (MDA-MB-468 cells): did not change
- incorporation of 13C from exogenous U-13C-serine into AMP and dTMP (MDA-MB-468 cells; treatment for 4 hours): decreased
- reduction of labeled (glucose-derived) intracellular serine (MDA-MB-468 cells; universally labeled carbon-13 glucose): > 75%
- reversibility of inhibition of serine synthesis in cells (MDA-MB-468 cells; washout): reversible
- IC50 (GPD1L): ≥ 100 µM
- intracellular serine levels [2]: reduced
- incorporation of carbon-13 from glucose into serine in the brain [3]: block incorporation
